Data from patent US20230040770A1, “HETEROCYCLIC COMPOUND AND USE THEREOF” (TAKEDA PHARMACEUTICAL COMPANY LIMITED, priority 2019, published 2023).

Each compound was assayed against T1, human orexin type 2 receptor (Homo sapiens, UniProt O43614) (assay: Measurement of orexin type 2 receptor agonist activity (calcium indicator fluorescence, CHO cells forcibly expressing human OX2 receptor)). Details: compound at 3 μM; 0% = DMSO, 100% = orexin A (human) 10 nM.
T1 construct: expressed in transfected cells
T1 sequence (O43614 1-444): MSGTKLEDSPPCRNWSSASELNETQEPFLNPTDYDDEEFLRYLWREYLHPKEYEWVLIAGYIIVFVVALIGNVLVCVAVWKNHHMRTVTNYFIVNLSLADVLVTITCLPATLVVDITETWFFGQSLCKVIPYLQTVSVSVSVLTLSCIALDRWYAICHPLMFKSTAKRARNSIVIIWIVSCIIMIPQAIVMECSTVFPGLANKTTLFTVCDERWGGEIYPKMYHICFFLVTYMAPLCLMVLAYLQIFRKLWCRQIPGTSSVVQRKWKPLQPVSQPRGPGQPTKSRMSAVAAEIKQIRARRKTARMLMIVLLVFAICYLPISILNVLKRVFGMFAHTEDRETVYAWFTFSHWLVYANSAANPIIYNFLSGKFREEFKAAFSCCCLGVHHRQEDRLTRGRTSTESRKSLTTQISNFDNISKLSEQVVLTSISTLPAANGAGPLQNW
Type: cell-based
Excerpt: To obtain a cell clone stably expressing human orexin type 2 receptor, human orexin type 2 receptor cDNA was inserted into pcDNA3.1(+) plasmid vector (Invitrogen), and a plasmid DNA for expression of human orexin type 2 receptor (pcDNA3.1(+)/hOX2R) was cloned. The plasmid DNA was introduced into CHO-dhfr cell by an electroporation method, and human orexin type 2 receptor expressing clone cells were obtained by limiting dilution method by using G418 drug resistance as a selection marker.
CHO cells forcibly expressing human OX2 receptor were seeded in each well of 384 well black transparent bottom plate (BD Falcon) at 7,500 cells/well, and cultured for one day in a 5% CO2 incubator at 37° C. After removal of the medium in the cell plate, assay buffer A containing a calcium indicator (HBSS (Thermo Fisher Scientific), 20 mM HEPES (Thermo Fisher Scientific), 0.1% BSA (Sigma-Aldrich), 2.5 μg/mL Fluo-4 AM (DOJINDO Chemical), 0.08% Pluronic F127 (DOJINDO Chemical), 1.25 mM probenecid (DOJINDO Chemical)) was added at 30 μL/well. The plate was stood for 30 min in a 5% CO2 incubator at 37° C., and further stood at room temperature for 30 min. A test compound prepared by diluting with assay buffer B (HBSS, 20 mM HEPES, 0.1% BSA) was added at 10 μL/well, and the fluorescence value was measured by FDSSμCELL (Hamamatsu Photonics K.K.) every one sec for 1 min, and thereafter every two sec for […]. The activity (%) of the test compound was calculated assuming that variation in the fluorescence value when DMSO was added instead of the test compound was 0%, and variation in the fluorescence value when orexin A (human) (PEPTIDE INSTITUTE, INC.) was added at the final concentration of 10 nM was 100%.

Going from CCS(=O)(=O)N[C@@H]1[C@H](Cc2cccc(-c3cc(C)cc(F)c3)c2F)N(C(=O)N2CCC2)CC1(F)F [Example 444, N-{(2S,3R)-1-(azetidine-1-carbonyl)-2-[(2,3′-difluoro-5′-methyl[1,1′-biphenyl]-3-yl)methyl]-4,4-difluoropyrrolidin-3-yl}ethanesulfonamide] to CN(C)S(=O)(=O)N[C@@H]1[C@H](Cc2cccc(-c3cc(F)cc(F)c3)c2F)N(C(=O)N2CCC2)CC1(F)F [Example 548, N′-{(2S,3R)-1-(azetidine-1-carbonyl)-4,4-difluoro-2-[(2,3′,5′-trifluoro[1,1′-biphenyl]-3-yl)methyl]pyrrolidin-3-yl}-N,N-dimethylsulfuric diamide], the “OX2R agonist activity (3 μM, %)” value falls from 98% to 94%.

Going from CS(=O)(=O)N[C@@H]1[C@H](Cc2cccc(-c3cc(F)ccc3F)c2F)N(C(=O)C2CC(F)C2)CC1(F)F (stereo partly drawn) [Example 439, N-{(2S,3R)-4,4-difluoro-1-(3-fluorocyclobutane-1-carbonyl)-2-[(2,2′,5′-trifluoro[1,1′-biphenyl]-3-yl)methyl]pyrrolidin-3-yl}methanesulfonamide] to CS(=O)(=O)N[C@@H]1[C@H](Cc2cccc(-c3cccc(F)c3F)c2F)N(C(=O)C2CC(F)C2)CC1(F)F (stereo partly drawn) [Example 436, N-{(2S,3R)-4,4-difluoro-1-(3-fluorocyclobutane-1-carbonyl)-2-[(2,2′,3′-trifluoro[1,1′-biphenyl]-3-yl)methyl]pyrrolidin-3-yl}methanesulfonamide], the “OX2R agonist activity (3 μM, %)” value falls from 93% to 92%.

First: CCS(=O)(=O)N[C@@H]1[C@H](Cc2cccc(-c3cccc(F)c3F)c2F)N(C(=O)C2(O)CCC2)CC1(F)F [Example 274, N-{(2S,3R)-4,4-difluoro-1-(1-hydroxycyclobutane-1-carbonyl)-2-[(2,2′,3′-trifluoro[1,1′-biphenyl]-3-yl)methyl]pyrrolidin-3-yl}ethanesulfonamide]
Second: CCS(=O)(=O)N[C@@H]1[C@H](Cc2cccc(-c3cccc(F)c3)c2F)N(C(=O)C2(O)CCC2)CC1(F)F [Example 273, N-[(2S,3R)-2-[(2,3′-difluoro[1,1′-biphenyl]-3-yl)methyl]-4,4-difluoro-1-(1-hydroxycyclobutane-1-carbonyl)pyrrolidin-3-yl]ethanesulfonamide]
The “OX2R agonist activity (3 μM, %)” value of the first is higher: 93% for the first, 83% for the second.

Compared with Cc1cc(F)cc(-c2cccc(C[C@H]3[C@@H](NS(=O)(=O)C4CC4)[C@@H](F)CN3C(=O)C3CCO3)c2F)c1 (stereo partly drawn) [Example 491, N-[(2S,3R,4S)-2-[(2,3′-difluoro-5′-methyl[1,1′-biphenyl]-3-yl)methyl]-4-fluoro-1-(oxetane-2-carbonyl)pyrrolidin-3-yl]cyclopropanesulfonamide], Cc1ccc(F)c(-c2cccc(C[C@H]3[C@@H](NS(=O)(=O)C4CC4)[C@@H](F)CN3C(=O)C3CCO3)c2F)c1 (stereo partly drawn) [Example 488, N-[(2S,3R,4S)-2-[(2,2′-difluoro-5′-methyl[1,1′-biphenyl]-3-yl)methyl]-4-fluoro-1-(oxetane-2-carobnyl)pyrrolidin-3-yl]cycloproapnesulfonamide] is higher in “OX2R agonist activity (3 μM, %)” value: 93% for the first, 95% for the second.

First: CCS(=O)(=O)N[C@H]1[C@@H](F)CN(C(=O)C2CCO2)[C@H]1Cc1cccc(-c2cccc(Cl)c2)c1F (stereo partly drawn) [Example 422, N-[(2S,3R,4S)-2-[(3′-chloro-2-fluoro[1,1′-biphenyl]-3-yl)methyl]-4-fluoro-1-(oxetane-2-carbonyl)pyrrolidin-3-yl]ethanesulfonamide]
Second: Cc1cc(F)cc(-c2cccc(C[C@H]3[C@@H](NS(=O)(=O)C4CC4)[C@@H](F)CN3C(=O)C3CCO3)c2F)c1 (stereo partly drawn) [Example 486, N-[(2S,3R,4S)-2-[(2,3′-difluoro-5′-methyl[1,1′-biphenyl]-3-yl)methyl]-4-fluoro-1-(oxetane-2-carbonyl)pyrrolidin-3-yl]cyclopropanesulfonamide]
The “OX2R agonist activity (3 μM, %)” value of the first is higher: 102% for the first, 88% for the second.

Going from O=C(N1CCC1)N1CC(F)(F)[C@H](NS(=O)(=O)C2CC2)[C@@H]1Cc1cccc(-c2cccc(F)c2)c1F [Example 534, N-{(2S,3R)-1-(azetidine-1-carbonyl)-2-[(2,3′-difluoro[1,1′-biphenyl]-3-yl)methyl]-4,4-difluoropyrrolidin-3-yl}cyclopropanesulfonamide] to CN(C)S(=O)(=O)N[C@@H]1[C@H](Cc2cccc(-c3ccccc3)c2F)N(C(=O)N2CCC2)CC1(F)F [Example 139, N′-{(2S,3R)-1-(azetidine-1-carbonyl)-4,4-difluoro-2-[(2-fluoro[1,1′-biphenyl]-3-yl)methyl]pyrrolidin-3-yl}-N,N-dimethylsulfuric diamine], the “OX2R agonist activity (3 μM, %)” value falls from 98% to 93%.

First: CCS(=O)(=O)N[C@@H]1[C@H](Cc2cccc(-c3ccc(F)c(C)c3F)c2F)N(C(=O)C2CCO2)CC1(F)F (stereo partly drawn) [Example 478, N-{(2S,3R)-4,4-difluoro-1-(oxetane-2-carbonyl)-2-[(2,2′,4′-trifluoro-3′-methyl[1,1′-biphenyl]-3-yl)methyl]pyrroldiin-3-yl}ethanesulfonamide]
Second: CCS(=O)(=O)N[C@@H]1[C@H](Cc2cccc(-c3cc(F)ccc3F)c2F)N(C(=O)C2CCO2)CC1(F)F (stereo partly drawn) [Example 356, N-{(2S,3R)-4,4-difluoro-1-(oxetane-2-carbonyl)-2-[(2,2′,5′-trifluoro[1,1′-biphenyl]-3-yl)methyl]pyrrolidin-3-yl}ethanesulfonamide]
The “OX2R agonist activity (3 μM, %)” value of the first is higher: 103% for the first, 97% for the second.

Going from CC(C)C(=O)N1CC(F)(F)[C@H](NS(C)(=O)=O)[C@@H]1Cc1cccc(-c2cccc(F)c2F)c1 [Example 131, N-[(2S,3R)-2-[(2′,3′-difluoro[1,1′-biphenyl]-3-yl)methyl]-4,4-difluoro-1-(2-methylpropanoyl)pyrrolidin-3-yl]methanesulfonamide] to CC(C)(O)C(=O)N1CC(F)(F)[C@H](NS(C)(=O)=O)[C@@H]1Cc1cccc(-c2cccc(Cl)c2)c1F [Example 44, N-[(2S,3R)-2-[(3′-chloro-2-fluoro[1,1′-biphenyl]-3-yl)methyl]-4,4-difluoro-1-(2-hydroxy-2-methylpropanoyl)pyrrolidin-3-yl]methanesulfonamide], the “OX2R agonist activity (3 μM, %)” value rises from 94% to 98%.

Compared with CS(=O)(=O)N[C@@H]1[C@H](Cc2cccc(-c3cc(F)cc(Cl)c3)c2F)N(C(=O)C2CC2)CC1(F)F [Example 245, N-[(2S,3R)-2-[(3′-chloro-2,5′-difluoro[1,1′-biphenyl]-3-yl)methyl]-1-(cyclopropanecarbonyl)-4,4-difluoropyrrolidin-3-yl]methanesulfonamide], CCS(=O)(=O)N[C@H]1[C@@H](F)CN(C(=O)C(C)(C)O)[C@H]1Cc1cccc(-c2cc(F)cc(Cl)c2)c1F [Example 345, N-[(2S,3R,4S)-2-[(3′-chloro-2,5′-difluoro[1,1′-biphenyl]-3-yl)methyl]-4-fluoro-1-(2-hydroxy-2-methylpropanoyl)pyrrolidin-3-yl]ethanesulfonamide] is lower in “OX2R agonist activity (3 μM, %)” value: 94% for the first, 92% for the second.

First: Cc1cccc(-c2cccc(C[C@H]3[C@@H](NS(=O)(=O)C4CC4)[C@@H](F)CN3C(=O)C3(O)CCC3)c2F)c1 [Example 537, N-[(2S,3R,4S)-4-fluoro-2-[(2-fluoro-3′-methyl[1,1′-biphenyl]-3-yl)methyl]-1-(1-hydroxycyclobutane-1-carbonyl)pyrrolidin-3-yl]cyclopropanesulfonamide]
Second: CCS(=O)(=O)N[C@@H]1[C@H](Cc2cccc(-c3cccc(C)c3)c2F)N(C(=O)C2(O)CCC2)CC1(F)F [Example 275, N-[(2S,3R)-4,4-difluoro-2-[(2-fluoro-3′-methyl[1,1′-biphenyl]-3-yl)methyl]-1-(1-hydroxycyclobutane-1-carbonyl)pyrrolidin-3-yl]ethanesulfonamide]
The “OX2R agonist activity (3 μM, %)” value of the first is higher: 100% for the first, 85% for the second.

With O=C(C1CC1)N1C[C@H](F)[C@H](NS(=O)(=O)C2CC2)[C@@H]1Cc1cccc(-c2cccc(F)c2F)c1F [Example 377, N-{(2S,3R,4S)-1-(cyclopropanecarbonyl)-4-fluoro-2-[(2,2′,3′-trifluoro[1,1′-biphenyl]-3-yl)methyl]pyrrolidin-3-yl}cyclopropanesulfonamide] the “OX2R agonist activity (3 μM, %)” value was 95%.
